Common to all, as to type: biochemical
Assay [1] addresses T1, rHDAC1 (Homo sapiens, UniProt Q13547).
T1 construct: FLAG; made in house
The assay can be described thus: rHDAC1 enzymatic assay (recombinant FLAG-HDAC1). To be noted: FLAG-HDAC1 from HEK293; 6 μM Ac-NH-GGK(Ac)-AMC, 3 h at 30° C.; read-out: rHDAC1 [pIC50] (converted). The source says:
(§1) Human HDAC1 and HDAC6 fused with the FLAG epitope are stably expressed in HEK293 cells while human HDAC3 and HDAC8 fused with the FLAG epitope are overexpressed in baculo-virus infected insect (Sf21) cells. To ensure stability of FLAG-HDAC3 the SMRT protein is co-expressed in the corresponding insect cells. […] FLAG-HDAC3 and FLAG-HDAC8 are also purified by M2-agarose affinity chromatography after mass cultivation of the insect cells and cell lysis.
(§2) The HDAC enzyme activity assay is done as described by Wegener et al. (Chem. & Biol. 10, 61-68, 2003). Briefly 40 μl of a 1:100 dilution (=0.4 μl) nuclear HeLa extract (mixture of class I and II HDACs), 29 μl enzyme buffer (15 mM Tris HCl pH 8.1, 0.25 mM EDTA, 250 mM NaCl, 10% v:v glycerol) and 1 μl test compound are added to a well of a 96 well microtiter plate and reaction started by addition of 3 μl substrate (Ac-NH-GGK(Ac)-AMC; final concentration 25 μM and final volume […]). […] After incubation at room temperature for further 40 min, fluorescence is measured using a Wallac Victor 1420 multilabel counter (Ex 355 nm, Em 460 nm) for quantification of AMC (7-amino-4-methylcoumarin) generated by trypsine cleavage of the deacetylated peptide. […] The corresponding pIC50 values of the compounds for HDAC inhibitory activity are determined from the concentration-effect curves by means of non-linear regression (Graphpad Prism software).
(§3) The HDAC1, HDAC3 and HDAC6 enzymatic assays are done with slight modifications with recombinant FLAG-HDAC1 and FLAG-HDAC6 proteins isolated from HEK293 cell lysates or recombinant FLAG-HDAC3 isolated from insect cells, respectively. The HDAC8 enzymatic assay using recombinant FLAG-HDAC8 isolated from insect cells is done with a different substrate. About 4.5 ng/well FLAG-HDAC1 and 3.1 ng/well FLAG-HDAC6 (dependent on batches and specific activity) are incubated with 6 μM or 10 μM Ac-NH-GGK(Ac)-AMC substrate, respectively, for 3 h at 30° C. About 1.7 ng/well FLAG-HDAC3 is incubated with 6 μM Ac-NH-GGK(Ac)-AMC substrate for 2 h at 30° C., while approximately 130 ng/well FLAG-HDAC8 is incubated with 50 μM Ac-RHK(Ac)K(Ac)-AMC substrate for 3 h at 30° C. Termination of the reaction and all further steps are done as described for HeLa cell nuclear extracts as a source for HDAC enzymatic activity. The corresponding pIC50 values of the compounds for HDAC1, HDAC3, HDAC6 and HDAC8 inhibitory activity are determined from the concentration-effect curves by means of non-linear regression.

In assay [2] the target is T2, rHDAC8 (Homo sapiens, UniProt Q9BY41).
T2 construct: FLAG; made in house; host or cells: baculovirus-infected Sf21 insect cells
T2 sequence (Q9BY41 1-377): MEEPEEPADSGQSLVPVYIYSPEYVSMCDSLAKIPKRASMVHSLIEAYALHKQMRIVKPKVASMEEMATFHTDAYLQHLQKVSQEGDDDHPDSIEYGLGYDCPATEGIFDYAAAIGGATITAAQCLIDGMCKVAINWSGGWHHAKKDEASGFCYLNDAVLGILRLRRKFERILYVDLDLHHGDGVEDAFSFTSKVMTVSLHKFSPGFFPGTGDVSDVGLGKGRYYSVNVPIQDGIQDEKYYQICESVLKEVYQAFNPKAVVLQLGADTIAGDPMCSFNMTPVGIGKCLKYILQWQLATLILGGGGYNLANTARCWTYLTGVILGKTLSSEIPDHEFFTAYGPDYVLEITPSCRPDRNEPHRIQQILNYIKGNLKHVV
Nature of the assay: rHDAC8 enzymatic assay (recombinant FLAG-HDAC8). To be noted: FLAG-HDAC8 from insect cells; 50 μM Ac-RHK(Ac)K(Ac)-AMC, 3 h at 30° C.; read-out: rHDAC8 [pIC50] (converted).
Source text: as §1, §2, §3

The target of assay [3] is T3, rHDAC6 (Homo sapiens, UniProt Q9UBN7).
T3 construct: FLAG; made in house
T3 sequence (Q9UBN7 1-1215): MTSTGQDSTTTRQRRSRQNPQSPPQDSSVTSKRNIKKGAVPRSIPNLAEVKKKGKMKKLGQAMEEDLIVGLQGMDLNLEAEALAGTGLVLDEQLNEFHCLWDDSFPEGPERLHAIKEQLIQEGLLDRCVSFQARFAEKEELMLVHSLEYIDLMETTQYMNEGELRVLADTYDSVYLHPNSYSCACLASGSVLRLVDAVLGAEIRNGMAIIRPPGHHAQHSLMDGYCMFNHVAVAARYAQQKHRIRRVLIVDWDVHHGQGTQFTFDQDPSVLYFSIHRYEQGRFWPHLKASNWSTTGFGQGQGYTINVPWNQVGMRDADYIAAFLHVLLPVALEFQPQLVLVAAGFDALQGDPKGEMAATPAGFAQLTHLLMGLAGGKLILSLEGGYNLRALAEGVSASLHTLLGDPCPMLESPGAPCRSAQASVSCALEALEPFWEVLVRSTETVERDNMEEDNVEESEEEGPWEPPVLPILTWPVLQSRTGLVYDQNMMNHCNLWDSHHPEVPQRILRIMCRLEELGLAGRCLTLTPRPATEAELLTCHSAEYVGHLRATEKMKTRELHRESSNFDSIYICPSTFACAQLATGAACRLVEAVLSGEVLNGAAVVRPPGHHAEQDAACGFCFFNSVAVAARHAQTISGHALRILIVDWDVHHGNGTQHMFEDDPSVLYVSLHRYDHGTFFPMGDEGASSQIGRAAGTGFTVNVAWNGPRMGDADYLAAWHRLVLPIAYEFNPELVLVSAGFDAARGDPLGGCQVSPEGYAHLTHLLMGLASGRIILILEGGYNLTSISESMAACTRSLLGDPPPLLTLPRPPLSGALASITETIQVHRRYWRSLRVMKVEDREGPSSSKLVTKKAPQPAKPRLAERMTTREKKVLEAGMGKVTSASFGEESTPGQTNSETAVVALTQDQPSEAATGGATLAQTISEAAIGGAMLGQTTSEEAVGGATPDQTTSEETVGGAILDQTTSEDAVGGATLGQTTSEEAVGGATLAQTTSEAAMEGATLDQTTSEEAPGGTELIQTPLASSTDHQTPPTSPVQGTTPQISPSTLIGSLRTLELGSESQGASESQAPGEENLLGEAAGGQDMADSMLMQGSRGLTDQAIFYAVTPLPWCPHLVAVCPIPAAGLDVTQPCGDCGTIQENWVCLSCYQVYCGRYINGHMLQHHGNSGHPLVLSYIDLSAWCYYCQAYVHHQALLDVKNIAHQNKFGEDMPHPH
Nature of the assay: rHDAC6 enzymatic assay (recombinant FLAG-HDAC6). To be noted: FLAG-HDAC6 from HEK293; 10 μM Ac-NH-GGK(Ac)-AMC, 3 h at 30° C.; read-out: rHDAC6 [pIC50] (converted).
Source text: as §1, §2, §3

Structures can show the parent of a compound that is named as a salt.

T1 sequence (Q13547 whole entry): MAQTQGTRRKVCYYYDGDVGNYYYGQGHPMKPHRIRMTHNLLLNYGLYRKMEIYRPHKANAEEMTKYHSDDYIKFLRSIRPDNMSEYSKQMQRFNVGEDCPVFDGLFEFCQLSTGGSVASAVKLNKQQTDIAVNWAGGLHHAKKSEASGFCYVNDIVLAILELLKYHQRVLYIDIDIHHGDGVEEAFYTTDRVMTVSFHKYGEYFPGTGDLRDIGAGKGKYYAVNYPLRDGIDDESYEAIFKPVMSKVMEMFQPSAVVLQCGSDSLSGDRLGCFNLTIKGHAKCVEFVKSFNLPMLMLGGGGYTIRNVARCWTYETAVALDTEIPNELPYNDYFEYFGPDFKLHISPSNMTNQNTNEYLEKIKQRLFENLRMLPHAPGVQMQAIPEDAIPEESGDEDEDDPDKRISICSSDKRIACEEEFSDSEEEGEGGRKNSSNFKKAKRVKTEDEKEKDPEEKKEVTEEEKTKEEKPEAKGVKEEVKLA

Turning to `CNC(=O)N1CCc2cc(C(=O)NO)ccc2C1` [Example 4, N6-Hydroxy-N2-methyl-3,4-dihydroisoquinoline-2,6(1H)-dicarboxamide], the IC50 in assay [1] is 100 to 10000 nM; in assay [2], 1000 to 10000 nM; in assay [3], 1 to 100 nM.

Turning to `COc1ccc2[nH]c(C(=O)N3CCc4ccc(C(=O)NO)cc4C3)cc2c1` [Example 24, N-Hydroxy-2-[(5-methoxy-1H-indol-2-yl)carbonyl]-1,2,3,4-tetrahydroisoquinoline-7-carboxamide], the IC50 in assay [1] is 100 to 10000 nM; in assay [2], 10 to 1000 nM; in assay [3] it was 1 to 100 nM.

For `COCCOCC(=O)N1CCc2cc(C(=O)NO)ccc2C1` [Example 11, N-Hydroxy-2-[(2-methoxyethoxy)acetyl]-1,2,3,4-tetrahydroisoquinoline-6-carboxamide], the values for the IC50 in assay [1], in assay [2] and in assay [3] were 10000 to 100000 nM, 1000 to 10000 nM and 100 to 1000 nM, respectively.

As for `O=C(NO)c1ccc2c(c1)CN(C(=O)Cc1ccccn1)CC2` [Example 21, N-Hydroxy-2-(pyridin-2-ylacetyl)-1,2,3,4-tetrahydroisoquinoline-7-carboxamide hydrochloride], the results for the IC50 in assay [1], in assay [2] and in assay [3] were 100 to 10000 nM, 10 to 1000 nM and 1 to 100 nM, respectively.

`COCCCNC(=O)N1CCc2cc(C(=O)NO)ccc2C1` [Example 5, N6-Hydroxy-N2-(3-methoxypropyl)-3,4-dihydroisoquinoline-2,6(1H)-dicarboxamide]: the IC50 in assay [1] was 100 to 10000 nM; in assay [2], 1000 to 10000 nM; in assay [3], 1 to 100 nM.

Consider `O=C(NO)c1ccc2c(c1)CN(C(=O)C1CCOC1)CC2` (stereo not drawn) [Example 20, N-Hydroxy-2-(tetrahydrofuran-3-ylcarbonyl)-1,2,3,4-tetrahydroisoquinoline-7-carboxamide], for which the IC50 is 100 to 10000 nM in assay [1], 10 to 1000 nM in assay [2] and 100 to 1000 nM in assay [3].

Take `O=C(NO)c1ccc2c(c1)CN(C(=O)Cc1c[nH]c3ccccc13)CC2` [Example 18, N-Hydroxy-2-(1H-indol-3-ylacetyl)-1,2,3,4-tetrahydroisoquinoline-7-carboxamide]: the IC50 is 100 to 10000 nM in assay [1], 10 to 1000 nM in assay [2] and 1 to 100 nM in assay [3].

For the molecule `O=C(NO)c1ccc2c(c1)CN(C(=O)Cc1cccnc1)CC2` [Example 19, N-Hydroxy-2-(pyridin-3-ylacetyl)-1,2,3,4-tetrahydroisoquinoline-7-carboxamide hydrochloride], the IC50 in assay [1] is 100 to 10000 nM; in assay [2], 10 to 1000 nM; in assay [3] it was 1 to 100 nM.

With `O=C(NO)c1ccc2c(c1)CCN(C(=O)Cc1c[nH]c3ccccc13)C2` [Example 1, N-Hydroxy-2-(indol-3-ylacetyl)-1,2,3,4-tetrahydroisoquinoline-6-carboxamide hydrochloride], the IC50 in assay [1] was 100 to 10000 nM; in assay [2], 1000 to 10000 nM; in assay [3], 1 to 100 nM.

Take `CN(C)CCCC(=O)N1CCc2cc(C(=O)NO)ccc2C1` [Example 9, 2-[4-(Dimethylamino)butanoyl]-N-hydroxy-1,2,3,4-tetrahydroisoquinoline-6-carboxamide hydrochloride]: the IC50 in assay [1] is 100 to 10000 nM; in assay [2], 1000 to 10000 nM; in assay [3], 100 to 1000 nM.

As to `COc1ccc2[nH]c(C(=O)N3CCc4cc(C(=O)NO)ccc4C3)cc2c1` [Example 15, N-Hydroxy-2-[(5-methoxy-1H-indol-2-yl)carbonyl]-1,2,3,4-tetrahydroisoquinoline-6-carboxamide], the values for the IC50 in assay [1], in assay [2] and in assay [3] were 100 to 10000 nM, 1000 to 10000 nM and 1 to 100 nM, respectively.

As for `Cc1nccn1CC(=O)N1CCc2cc(C(=O)NO)ccc2C1` [Example 10, N-Hydroxy-2-[(2-methyl-1H-imidazol-1-yl)acetyl]-1,2,3,4-tetrahydroisoquinoline-6-carboxamide hydrochloride], the IC50 in assay [1] was 10000 to 100000 nM; in assay [2] it was 1000 to 10000 nM; in assay [3], 100 to 1000 nM.

Take `O=C(NO)c1ccc2c(c1)CCN(C(=O)CCc1cccnc1)C2` [Example 7, N-Hydroxy-2-(3-pyridin-3-ylpropanoyl)-1,2,3,4-tetrahydroisoquinoline-6-carboxamide hydrochloride]: the IC50 is 10000 to 100000 nM in assay [1], 1000 to 10000 nM in assay [2] and 1 to 100 nM in assay [3].

As for `CC(=O)N1CCc2cc(C(=O)NO)ccc2C1` [Example 12, 2-Acetyl-N-hydroxy-1,2,3,4-tetrahydroisoquinoline-6-carboxamide], the IC50 in assay [1] was 10000 to 100000 nM; in assay [2], 1000 to 10000 nM; in assay [3], 100 to 1000 nM.

`Cc1ccc(C(=O)N2CCc3ccc(C(=O)NO)cc3C2)cc1` [Example 23, N-Hydroxy-2-(4-methylbenzoyl)-1,2,3,4-tetrahydroisoquinoline-7-carboxamide]: the IC50 in assay [1] is 100 to 10000 nM; in assay [2] it was 10 to 1000 nM; in assay [3], 1 to 100 nM.

Turning to `CC#CC(=O)N1CCc2ccc(C(=O)NO)cc2C1` [Example 17, 2-But-2-ynoyl-N-hydroxy-1,2,3,4-tetrahydroisoquinoline-7-carboxamide], the results for the IC50 in assay [1], in assay [2] and in assay [3] were 100 to 10000 nM, 10 to 1000 nM and 1 to 100 nM, respectively.

Turning to `O=C(NO)c1ccc2c(c1)CN(C(=O)NCCc1ccccc1)CC2` [Example 22, N7-Hydroxy-N2-(2-phenylethyl)-3,4-dihydroisoquinoline-2,7(1H)-dicarboxamide], the IC50 in assay [1] is 100 to 10000 nM; in assay [2], 10 to 1000 nM; in assay [3] it was 1 to 100 nM.

The record behind these values is patent publication US8575193B2, “N-substituted tetrahydroisoquinoline/isoindoline hydroxamic acid compounds” (4SC AG, priority 2008, dated 2013).
